# Reference: the NIST ThermoML archive (doi:10.1016/j.jct.2003.12.012)
# ± gives the expanded uncertainty stated by the source.
# Experiments:
# [1] = for mass density / vapor or sublimation pressure: Liquid; for mass density: Vibrating tube method
# [2] = Molar enthalpy of transition or fusion; conditions: Crystal; Adiabatic calorimetry
# [3] = molar heat capacity at saturation pressure; conditions: Crystal, Vacuum adiabatic calorimetry
smiles,measurement,setting,value
"c1ccc2c3c(sc2c1)CCCC3 [1,2,3,4-tetrahydrodibenzothiophene]",mass density,[1]; 323.14 K,1125.7 ± 3.4 kg/m3
same,mass density,[1]; 348.13 K,1105.2 ± 3.3 kg/m3
same,vapor or sublimation pressure,"[1]; 359.98 K, Inclined piston gauge",0.0221 ± 0.001 kPa
same,vapor or sublimation pressure,"[1]; 369.98 K, Inclined piston gauge",0.0414 ± 0.0011 kPa
same,mass density,[1]; 373.12 K,1086 ± 3.3 kg/m3
same,vapor or sublimation pressure,"[1]; 379.97 K, Inclined piston gauge",0.0746 ± 0.0011 kPa
same,vapor or sublimation pressure,"[1]; 389.97 K, Inclined piston gauge",0.1296 ± 0.0011 kPa
same,vapor or sublimation pressure,"[1]; 400.17 K, Inclined piston gauge",0.2209 ± 0.0013 kPa
same,vapor or sublimation pressure,"[1]; 409.96 K, Inclined piston gauge",0.3567 ± 0.0014 kPa
same,vapor or sublimation pressure,"[1]; 419.97 K, Inclined piston gauge",0.5674 ± 0.0017 kPa
same,mass density,[1]; 423.11 K,1046.8 ± 3.1 kg/m3
same,vapor or sublimation pressure,"[1]; 429.96 K, Inclined piston gauge",0.8785 ± 0.002 kPa
same,vapor or sublimation pressure,"[1]; 439.96 K, Inclined piston gauge",1.328 ± 0.0026 kPa
same,mass density,[1]; 448.11 K,1028.1 ± 3.1 kg/m3
same,vapor or sublimation pressure,"[1]; 449.96 K, Inclined piston gauge",1.962 ± 0.0033 kPa
same,vapor or sublimation pressure,"[1]; 450.48 K, Ebulliometric method (Recirculating still)",2.002 ± 0.01 kPa
same,vapor or sublimation pressure,"[1]; 454.96 K, Inclined piston gauge",2.368 ± 0.0039 kPa
same,vapor or sublimation pressure,"[1]; 459.96 K, Inclined piston gauge",2.842 ± 0.0044 kPa
same,vapor or sublimation pressure,"[1]; 469.6 K, Ebulliometric method (Recirculating still)",3.993 ± 0.011 kPa
same,vapor or sublimation pressure,"[1]; 478.25 K, Ebulliometric method (Recirculating still)",5.331 ± 0.011 kPa
same,vapor or sublimation pressure,"[1]; 491.02 K, Ebulliometric method (Recirculating still)",8 ± 0.012 kPa
same,vapor or sublimation pressure,"[1]; 500.6 K, Ebulliometric method (Recirculating still)",10.67 ± 0.013 kPa
same,vapor or sublimation pressure,"[1]; 508.29 K, Ebulliometric method (Recirculating still)",13.32 ± 0.014 kPa
same,vapor or sublimation pressure,"[1]; 516.36 K, Ebulliometric method (Recirculating still)",16.66 ± 0.016 kPa
same,vapor or sublimation pressure,"[1]; 523.05 K, Ebulliometric method (Recirculating still)",19.94 ± 0.017 kPa
same,vapor or sublimation pressure,"[1]; 531.82 K, Ebulliometric method (Recirculating still)",25.02 ± 0.019 kPa
same,vapor or sublimation pressure,"[1]; 540.67 K, Ebulliometric method (Recirculating still)",31.18 ± 0.022 kPa
same,vapor or sublimation pressure,"[1]; 549.55 K, Ebulliometric method (Recirculating still)",38.56 ± 0.026 kPa
same,vapor or sublimation pressure,"[1]; 558.49 K, Ebulliometric method (Recirculating still)",47.38 ± 0.03 kPa
same,vapor or sublimation pressure,"[1]; 567.47 K, Ebulliometric method (Recirculating still)",57.8 ± 0.034 kPa
same,vapor or sublimation pressure,"[1]; 576.48 K, Ebulliometric method (Recirculating still)",70.09 ± 0.04 kPa
same,vapor or sublimation pressure,"[1]; 585.54 K, Ebulliometric method (Recirculating still)",84.5 ± 0.046 kPa
same,vapor or sublimation pressure,"[1]; 594.67 K, Ebulliometric method (Recirculating still)",101.29 ± 0.054 kPa
same,vapor or sublimation pressure,"[1]; 603.84 K, Ebulliometric method (Recirculating still)",120.72 ± 0.06 kPa
same,Triple point temperature,"[1]; Crystal, Adiabatic calorimetry",275.03 ± 0.05 K
same,Molar enthalpy of transition or fusion,[2],3.348 ± 0.00406 kcal/mol
same,molar heat capacity,[3]; 4.929 K,0.32 ± 0.02 J/K/mol
same,molar heat capacity,[3]; 5 K,0.33 ± 0.02 J/K/mol
same,molar heat capacity,[3]; 5.867 K,0.56 ± 0.02 J/K/mol
same,molar heat capacity,[3]; 6.798 K,0.931 ± 0.02 J/K/mol
same,molar heat capacity,[3]; 7.734 K,1.41 ± 0.02 J/K/mol
same,molar heat capacity,[3]; 8.759 K,2.08 ± 0.03 J/K/mol
same,molar heat capacity,[3]; 9.819 K,2.94 ± 0.04 J/K/mol
same,molar heat capacity,[3]; 10 K,3.08 ± 0.04 J/K/mol
same,molar heat capacity,[3]; 10.94 K,3.96 ± 0.04 J/K/mol
same,molar heat capacity,[3]; 12.2 K,5.23 ± 0.05 J/K/mol
same,molar heat capacity,[3]; 13.6 K,6.8 ± 0.06 J/K/mol
same,molar heat capacity,[3]; 15.14 K,8.647 ± 0.07 J/K/mol
same,molar heat capacity,[3]; 16.83 K,10.74 ± 0.083 J/K/mol
same,molar heat capacity,[3]; 18.67 K,13.06 ± 0.091 J/K/mol
same,molar heat capacity,[3]; 20 K,14.74 ± 0.1 J/K/mol
same,molar heat capacity,[3]; 20.68 K,15.6 ± 0.1 J/K/mol
same,molar heat capacity,[3]; 22.91 K,18.38 ± 0.11 J/K/mol
same,molar heat capacity,[3]; 25.4 K,21.41 ± 0.11 J/K/mol
same,molar heat capacity,[3]; 28.17 K,24.67 ± 0.11 J/K/mol
same,molar heat capacity,[3]; 30 K,26.76 ± 0.1 J/K/mol
same,molar heat capacity,[3]; 31.26 K,28.16 ± 0.1 J/K/mol
same,molar heat capacity,[3]; 34.71 K,31.86 ± 0.11 J/K/mol
same,molar heat capacity,[3]; 38.53 K,35.74 ± 0.12 J/K/mol
same,molar heat capacity,[3]; 40 K,37.17 ± 0.12 J/K/mol
same,molar heat capacity,[3]; 42.79 K,39.83 ± 0.12 J/K/mol
same,molar heat capacity,[3]; 47.54 K,44.15 ± 0.13 J/K/mol
same,molar heat capacity,[3]; 50 K,46.29 ± 0.13 J/K/mol
same,molar heat capacity,[3]; 52.85 K,48.69 ± 0.14 J/K/mol
same,molar heat capacity,[3]; 58.73 K,53.4 ± 0.15 J/K/mol
same,molar heat capacity,[3]; 59.8 K,54.26 ± 0.15 J/K/mol
same,molar heat capacity,[3]; 60 K,54.39 ± 0.15 J/K/mol
same,molar heat capacity,[3]; 65.16 K,58.28 ± 0.16 J/K/mol
same,molar heat capacity,[3]; 65.33 K,58.42 ± 0.16 J/K/mol
same,molar heat capacity,[3]; 70 K,61.88 ± 0.17 J/K/mol
same,molar heat capacity,[3]; 71.56 K,63.02 ± 0.17 J/K/mol
same,molar heat capacity,[3]; 78.46 K,67.87 ± 0.17 J/K/mol
